Data set [1] in a line: In vivo pharmacokinetic and oral bioavailability in mouse. Set-up: species or system male Swiss mice. The method, then:
The in vivo pharmacokinetics and oral bioavailability of the compound of the examples were/are investigated in male Swiss mice (fed) following single intravenous (i.v.) bolus and oral (p.o.) administration. For the i.v. and p.o. solution formulations, the compound was/is dissolved in a 20% HP-β-CD solution. The pH of the formulations was/is around pH 4. All i.v. formulations were isotonic.

The test system of data set [2] is Staphylococcus aureus ATCC 29213. Description: Antibacterial susceptibility testing, IC90 determination (STA). It is filed as cell-based. To be noted: Staphylococcus aureus, ATCC29213, Staphylococcus aureus ATCC 29213, broth microdilution, resazurin; read-out: STA (361.159) IC90. An outline of the steps:
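S. aureus ATCC 29213 tested by broth microdilution in Mueller-Hinton broth, 5×10^5 CFU/ml, two-fold compound dilutions typically 63 to 0.49 μM, 1.25% DMSO, 16-20 h at 35° C. Growth read fluorometrically with resazurin (ex 540/em 590 nm); IC90 in μg/ml is 90% growth-inhibitory concentration.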
For orientation: Dilution methods test growth across graded concentrations, often in twofold steps.

A short description of data set [3]: Cytotoxicity MTT assay (HELAM). It is filed as cell-based, Human. To be noted: human, HelaM cells, read-out: HELAM (222.125) CC50. An outline of the steps:
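HelaM cells exposed 72 h at 37° C to serial dilutions, typically 25 to 0.8 μM, in 0.5% DMSO. MTT formazan dissolved in 2-propanol, absorbance at 540 nm minus 690 nm; CC50 is concentration halving viability.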
Background: Tetrazolium assays rely on reduction of a dye to a coloured formazan, in cell work by metabolically active cells.

Where [4] appears, read: male, Swiss, plasma, iv, 2.5 mg/kg, 20% HP-β-cyclodextrin.
Setting [5] is: male, Swiss, plasma, po, 10 mg/kg, 20% HP-β-cyclodextrin.

Converted amounts (≈) assume the structure as drawn.

As to `O=C1CNCc2cc(/C=C/C(=O)N3CC4C=C(c5nccs5)CC4C3)cnc2N1` (centres unmarked) [compound 48], the Vdz in data set [1] (i.v., 2.5 mg/kg, 20% HP-β-cyclodextrin) came out at 2.8 L/kg. For the same compound, in data set [1] (setting [4]), the AUC(0-inf) (in general, the area under the concentration-time curve extrapolated to infinity) turned out to be 1.6 µg·h/mL and the C0 stood at 4.56 µg/mL. Moreover, in data set [1] (male, Swiss, plasma, iv, 2.5 mg/kg, 20% HP-β-cyclodextrin, read-out: Half life (t1/2) (converted)), the half-life was 1.2 h. Also, in data set [1] (male, Swiss, plasma, iv, 2.5 mg/kg, 20% HP-β-cyclodextrin, read-out: Plasma clearance Cl (converted)), the clearance is 1.6 L/h/kg. In addition, in data set [1] (setting [5]), the AUC(0-inf) came out at 2.05 µg·h/mL, the concentration peaked (Cmax) at 0.483 µg/mL and the Tmax (usually the time at which the peak concentration occurs) was found to be 1.3 h. Further, in data set [1] (male, Swiss, plasma, po, p.o. 10 mg/kg vs i.v. 2.5 mg/kg), the bioavailability (usually the share of a dose that reaches the circulation, judged against a reference dose that is usually intravenous) came out at 32%. The IC90 – broadly, the concentration needed for an effect of 90% – in data set [2] is 0.24 mg/L (≈ 0.589 µM). The CC50 – broadly, the concentration at which the toxic effect on the cells reaches its halfway point – at 72 h in data set [3] is more than 10.2 mg/L.

Source of the values: patent US9315522B2, “Antibacterial compounds” (JANSSEN SCIENCES IRELAND UC, priority 2012, dated 2016).
